Measured values reported in ChEMBL document CHEMBL1137178, “Design, synthesis and antimalarial activity of a glyoxylylhydrazone library” (Bioorg Med Chem Lett, 2004).

What was measured:
Plasmodium falciparum [1] = assay: Inhibitory concentration against chloroquine-resistant Plasmodium falciparum FcB1; type: functional, organism-based
Plasmodium falciparum [2] = assay: Growth inhibitory concentration against chloroquine-resistant Plasmodium falciparum; type: functional, organism-based
[3] = target: T1, Histidine-rich protein PFHRP-II (Plasmodium falciparum) (UniProt P05227); assay: In vitro inhibition of beta-hematin formation in Plasmodium falciparum at 100 uM; type: functional
T1 sequence (whole entry): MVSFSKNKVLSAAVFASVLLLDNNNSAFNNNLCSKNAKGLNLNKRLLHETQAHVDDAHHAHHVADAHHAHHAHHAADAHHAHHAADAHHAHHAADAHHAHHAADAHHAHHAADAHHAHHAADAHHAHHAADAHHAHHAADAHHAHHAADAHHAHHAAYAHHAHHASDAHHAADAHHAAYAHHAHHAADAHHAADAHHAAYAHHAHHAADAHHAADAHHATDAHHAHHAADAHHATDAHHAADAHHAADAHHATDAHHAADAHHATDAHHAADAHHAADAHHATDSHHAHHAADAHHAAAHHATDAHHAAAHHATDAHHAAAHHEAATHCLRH

MRC5 [4] = assay: Cytotoxic effect on human diploid embryonic lung cell line (MRC-5) using the colorimetric MTT assay; type: functional
MRC5 [5] = assay: Selectivity index measured as CC50/IC50; type: functional, Homo sapiens
Plasmodium falciparum [6] = assay: Growth inhibition against Plasmodium falciparum FcB1 at 200 nM; type: functional

Row | Compound | IC50 (Plasmodium falciparum [1]) | IC50 (Plasmodium falciparum [2]) | inhibition [3] | CC50 (MRC5 [4]) | SI (MRC5 [5]) | inhibition at 0.2 µM (Plasmodium falciparum [6])
1 | Cc1cc(N/N=C/C(=O)NCCCCCCCNc2ccnc3cc(Cl)ccc23)nc2c1c(C)nn2C | 30 nM | 63.9 nM | 0% | 1800 nM | 28 | –
2 | O=C(/C=N/Nc1c(Cl)cc(C(F)(F)F)cc1Cl)NCCCCCCCNc1ccnc2cc(Cl)ccc12 | 16 nM | 88.7 nM | 7% | 9200 nM | 104 | –
3 | CCOCC(=O)N/N=C/C(=O)NCCCCCCCNc1ccnc2cc(Cl)ccc12 | – | – | 12% | – | – | 59%
4 | O=C(/C=N/Nc1ccnc2cc(Cl)ccc12)NCCCCCCCNc1ccnc2cc(Cl)ccc12 | 7 nM | 19.3 nM | 0% | 1400 nM | 73 | –
5 | CCN(CC)CCCC(C)Nc1ccnc2cc(Cl)ccc12 (centres undefined) [CHLOROQUINE] | – | – | 55% | 50000 nM | – | –
6 | Cc1cc(N/N=C/C(=O)NCCCCCCCNc2ccnc3cc(Cl)ccc23)nc(C)n1 | – | – | 19% | – | – | 0%
7 | CC(C)(C)O/N=C/C(=O)NCCCCCCCNc1ccnc2cc(Cl)ccc12 | – | – | 0% | – | – | 14%
8 | Cc1ccc(N/N=C/C(=O)NCCCCCCCNc2ccnc3cc(Cl)ccc23)c(C)c1 | 86 nM | – | 8% | – | – | –
9 | O=C(/C=N/NCc1ccccc1)NCCCCCCCNc1ccnc2cc(Cl)ccc12 | 35 nM | 161 nM | 0% | 14600 nM | 91 | –
10 | O=C(/C=N/OCc1c(F)c(F)c(F)c(F)c1F)NCCCCCCCNc1ccnc2cc(Cl)ccc12 | – | – | 0% | – | – | 33%
11 | O=C(/C=N/OCc1ccccc1)NCCCCCCCNc1ccnc2cc(Cl)ccc12 | – | – | 0% | – | – | 29%
12 | O=C(/C=N/Nc1ccc(Cl)cc1Cl)NCCCCCCCNc1ccnc2cc(Cl)ccc12 | – | – | 12% | – | – | 0%
13 | COc1ccc2nc(N/N=C/C(=O)NCCCCCCCNc3ccnc4cc(Cl)ccc34)nnc2c1 | 45 nM | 73.7 nM | 28% | 2500 nM | 34 | –
14 | CCO/N=C/C(=O)NCCCCCCCNc1ccnc2cc(Cl)ccc12 | – | – | 0% | – | – | 11%
15 | O=C(/C=N/Nc1cnc2ccccc2n1)NCCCCCCCNc1ccnc2cc(Cl)ccc12 | 90 nM | – | 0% | – | – | –
16 | CC(C)(C)N/N=C/C(=O)NCCCCCCCNc1ccnc2cc(Cl)ccc12 | 60 nM | – | 0% | – | – | –
17 | O=C(/C=N/OCc1ccc([N+](=O)[O-])cc1)NCCCCCCCNc1ccnc2cc(Cl)ccc12 | 5 nM | 62.3 nM | 0% | 1700 nM | 27 | –
18 | O=C(/C=N/Nc1ccc(F)c(Cl)c1)NCCCCCCCNc1ccnc2cc(Cl)ccc12 | 200 nM | – | 0% | – | – | –
19 | O=C(/C=N/Nc1ccc(Cl)nn1)NCCCCCCCNc1ccnc2cc(Cl)ccc12 | 180 nM | – | 0% | – | – | –
20 | O=C(/C=N/O)NCCCCCCCNc1ccnc2cc(Cl)ccc12 | – | – | 6% | – | – | 10%
21 | C=CCO/N=C/C(=O)NCCCCCCCNc1ccnc2cc(Cl)ccc12 | > 500 nM | – | 3% | – | – | –
22 | O=C(/C=N/Nc1ccc(F)cc1F)NCCCCCCCNc1ccnc2cc(Cl)ccc12 | 105 nM | – | 0% | – | – | –
23 | CC(C)(C)c1ccc(N/N=C/C(=O)NCCCCCCCNc2ccnc3cc(Cl)ccc23)cc1 | – | – | 1% | – | – | 32%
24 | CO/N=C/C(=O)NCCCCCCCNc1ccnc2cc(Cl)ccc12 | – | – | 4% | – | – | 11%
25 | O=C(/C=N/Nc1ccc([N+](=O)[O-])cc1[N+](=O)[O-])NCCCCCCCNc1ccnc2cc(Cl)ccc12 | 13 nM | 47.3 nM | 25% | 11100 nM | 235 | –
26 | O=C(/C=N/Nc1nc(-c2cccs2)ns1)NCCCCCCCNc1ccnc2cc(Cl)ccc12 | – | – | 19% | – | – | 8%
27 | CN(/N=C/C(=O)NCCCCCCCNc1ccnc2cc(Cl)ccc12)c1ncccc1[N+](=O)[O-] | – | – | 18% | – | – | 3%
28 | O=C(/C=N/Nc1ccccc1)NCCCCCCCNc1ccnc2cc(Cl)ccc12 | – | – | 0% | – | – | 0%
29 | COC(=O)c1sccc1N/N=C/C(=O)NCCCCCCCNc1ccnc2cc(Cl)ccc12 | – | – | 11% | – | – | 13%
